From ChEMBL document CHEMBL1649512, “Reduced susceptibility to cefepime among Escherichia coli clinical isolates producing novel variants of CMY-2 beta-lactamase” (2009)
In brackets after ≈: the same amount, converted by molar mass.

What was measured:
Type in all cases: functional
Escherichia coli [1] = assay: Antibacterial activity against Escherichia coli DH10B harboring plasmid BCSK carrying beta-lactamase CMY-44 gene by Etest method; conditions: K-12 DH10B
Escherichia coli [2] = assay: Antibacterial activity against Escherichia coli 34943 harboring beta-lactamase CMY-44 gene by Etest method
Escherichia coli [3] = assay: Antibacterial activity against Escherichia coli 1285 harboring beta-lactamase CMY-33 gene by Etest method
Escherichia coli [4] = assay: Antibacterial activity against Escherichia coli DH10B harboring plasmid BCSK by Etest method; conditions: K-12 DH10B
Escherichia coli [5] = assay: Antibacterial activity against Escherichia coli DH10B harboring plasmid BCSK carrying beta-lactamase CMY-2 gene by Etest method; conditions: K-12 DH10B
Escherichia coli [6] = assay: Antibacterial activity against Escherichia coli YD006 harboring beta-lactamase CMY-33 gene by Etest method
Escherichia coli [7] = assay: Antibacterial activity against Escherichia coli DH10B harboring plasmid BCSK carrying beta-lactamase CMY-33 gene by Etest method; conditions: K-12 DH10B

SMILES	MIC (Escherichia coli [1]) [µg/mL]	MIC (Escherichia coli [2]) [µg/mL]	MIC (Escherichia coli [3]) [µg/mL]	MIC (Escherichia coli [4]) [µg/mL]	MIC (Escherichia coli [5]) [µg/mL]	MIC (Escherichia coli [6]) [µg/mL]	MIC (Escherichia coli [7]) [µg/mL]
CC1(C)S[C@@H]2[C@H](NC(=O)[C@H](N)c3ccccc3)C(=O)N2[C@H]1C(=O)O [AMPICILLIN]	> 256	> 256	> 256	3 (≈ 8.59 µM)	> 256	128 (≈ 366 µM)	> 256
C[C@H]1[C@H](NC(=O)/C(=N\OC(C)(C)C(=O)O)c2csc(N)n2)C(=O)N1S(=O)(=O)O [AZTREONAM]	4 (≈ 9.19 µM)	24 (≈ 55.1 µM)	64 (≈ 147 µM)	–	8 (≈ 18.4 µM)	6 (≈ 13.8 µM)	16 (≈ 36.7 µM)
CO/N=C(\C(=O)N[C@@H]1C(=O)N2C(C(=O)[O-])=C(C[N+]3(C)CCCC3)CS[C@H]12)c1csc(N)n1 [CEFEPIME]	3 (≈ 6.24 µM)	32 (≈ 66.6 µM)	96 (≈ 200 µM)	0.032 (≈ 0.0666 µM)	0.25 (≈ 0.52 µM)	6 (≈ 12.5 µM)	6 (≈ 12.5 µM)
CO/N=C(\C(=O)N[C@@H]1C(=O)N2C(C(=O)O)=C(COC(C)=O)CS[C@H]12)c1csc(N)n1 [CEFOTAXIME]	8 (≈ 17.6 µM)	32 (≈ 70.3 µM)	> 256	0.064 (≈ 0.141 µM)	16 (≈ 35.1 µM)	8 (≈ 17.6 µM)	12 (≈ 26.3 µM)
CO[C@@]1(NC(=O)Cc2cccs2)C(=O)N2C(C(=O)O)=C(COC(N)=O)CS[C@@H]21 [CEFOXITIN]	32 (≈ 74.9 µM)	> 256	> 256	6 (≈ 14 µM)	> 256	24 (≈ 56.1 µM)	24 (≈ 56.1 µM)
CC(C)(O/N=C(\C(=O)N[C@@H]1C(=O)N2C(C(=O)[O-])=C(C[n+]3ccccc3)CS[C@H]12)c1csc(N)n1)C(=O)O [CEFTAZIDIME]	> 256	> 256	> 256	0.5 (≈ 0.915 µM)	> 256	> 256	> 256
CO/N=C(\C(=O)N[C@@H]1C(=O)N2C(C(=O)O)=C(COC(N)=O)CS[C@H]12)c1ccco1 [CEFUROXIME]	64 (≈ 151 µM)	> 256	> 256	6 (≈ 14.1 µM)	> 256	96 (≈ 226 µM)	128 (≈ 302 µM)
C[C@@H](O)[C@H]1C(=O)N2C(C(=O)O)=C(S[C@@H]3CN[C@H](C(=O)Nc4cccc(C(=O)O)c4)C3)[C@H](C)[C@H]12 [ERTAPENEM]	0.064 (≈ 0.135 µM)	4 (≈ 8.41 µM)	1 (≈ 2.1 µM)	0.012 (≈ 0.0252 µM)	0.094 (≈ 0.198 µM)	0.064 (≈ 0.135 µM)	0.032 (≈ 0.0673 µM)
CCN1CCN(C(=O)N[C@@H](C(=O)N[C@@H]2C(=O)N3[C@@H]2SC(C)(C)[C@@H]3C(=O)O)c2ccccc2)C(=O)C1=O [PIPERACILLIN]	32 (≈ 61.8 µM)	> 256	> 256	2 (≈ 3.86 µM)	128 (≈ 247 µM)	12 (≈ 23.2 µM)	64 (≈ 124 µM)
